In patent US10829496B2, “Thienopyridines and benzothiophenes useful as IRAK4 inhibitors” (BRISTOL-MYERS SQUIBB COMPANY, priority 2017, dated 2020):

Columns and labels:
[1] = target: IRAK4 (Homo sapiens (Human), UniProt Q9NWZ3); assay: IRAK4 Inhibition Assay; type: biochemical; conditions: ATP 500 μM; IRAK4 0.6 nM; 60 min at room temperature
Protocol: The assays were performed in U-bottom 384-well plates. The final assay volume was 30 μL prepared from 15 μL additions of enzyme and substrates (fluoresceinated peptide and ATP) and test compounds in assay buffer (20 mM HEPES pH 7.2, 10 mM MgCl2, 0.015% Brij 35 and 4 mM DTT). The reaction was initiated by the combination of IRAK4 with substrates and test compounds. The reaction mixture was incubated at room temperature for 60 min. and terminated by adding 45 μL of 35 mM EDTA to each sample. The reaction mixture was analyzed on the Caliper LABCHIP® 3000 (Caliper, Hopkinton, Mass.) by electrophoretic separation of the fluorescent substrate and phosphorylated product. Inhibition data were calculated by comparison to no enzyme control reactions for 100% inhibition and vehicle-only reactions for 0% inhibition. The final concentrations of reagents in the assays are ATP, 500 μM; FL-IPTSPITTTYFFFKKK peptide 1.5 μM; IRAK4, 0.6 nM; and DMSO, 1.6%.

[2] = test system: IL-6 levels in human whole blood stimulated with a TLR2 agonist; assay: IRAK4 Whole Blood Assay (TLR2 agonist lipoteichoic acid-stimulated IL-6); type: cell-based; conditions: 10 μg/mL lipoteichoic acid, 5 hours, IL-6 readout
Protocol: Human whole blood containing the anti-coagulant ACD-A was plated in 384-well plate (25 μL/well) and incubated with compounds for 60 minutes at 37° C. in a 5% CO2 incubator. The blood was stimulated with a TLR2 agonist, 10 μg/mL final concentration of lipoteichoic acid (Invivogen, San Diego, Calif.) in 25 μL RPMI (Gibco) for 5 hours in a 5% CO2 incubator. At the end of the incubation, plates were centrifuged at 2300 rpm for 5 minutes. Supernatants were harvested and analyzed for IL-6 levels by Flow Cytometry beads assay (BD Biosciences, San Jose, Calif.).

[3] = Caco-2 Permeability Assay; type: in vitro ADME; conditions: human, 3 μM compound, 2 hours at 37° C., direction not given
Protocol: Caco-2 Permeability Assay
Thirteen to 27 days prior to assay, Caco-2 cells were seeded onto collagen-coated polycarbonate filter membranes in 24-well transwell plates at a density of 1.45×10^5 cells/cm^2, approximately 4.8×10^4 cells per well. The cells were grown in a culture medium consisting of DMEM supplemented with 10% fetal bovine serum, 10 mM HEPES, 1% nonessential amino acids, 2 mM L-glutamine, 100 U/mL penicillin-G, and 100 μg/mL streptomycin. The culture medium was replaced every 3 days and the cells were maintained at 37° C. in a 95% relative humidity and 5% CO2 atmosphere. The cells were evaluated for tight junction formation just prior to assay. The test compound was solubilized to 10 mM in 100% DMSO and diluted to 3 μM in assay buffer. Permeability studies were initiated by adding 200 μL assay buffer plus/minus compound to the apical transwell compartment and 600 μL assay buffer plus/minus compound to the basolateral compartment of the 24-well transwell low-binding cluster plate. For apical-to-basolateral (A to B) permeability (absorptive direction), buffer containing compound was placed in the apical compartment (donorwells), while buffer alone was placed in the corresponding basolateral compartments (receiverwells). For basolateral-to-apical (B to A) permeability (secretive direction), buffer containing compound was placed in the basolateral compartment (donor wells), while buffer alone was placed in the corresponding apical compartments (receiver wells). Transwells were then incubated for 2 hours at 37° C. in a 95% relative humidity and 5% CO2 atmosphere with gentle agitation. Following incubation, 100 μL was removed from each apical and basolateral compartment and transferred to 96-well low binding plates that had been previously loaded with 100 μL/well of acetonitrile containing 250 nM propranolol, 250 nM diclofenac, and 500 nM tolbutamide as internal standards. The samples were subsequently analyzed by LC-MS/MS to determine concentrations of compound.

Sequence of IRAK4 (Q9NWZ3 whole entry): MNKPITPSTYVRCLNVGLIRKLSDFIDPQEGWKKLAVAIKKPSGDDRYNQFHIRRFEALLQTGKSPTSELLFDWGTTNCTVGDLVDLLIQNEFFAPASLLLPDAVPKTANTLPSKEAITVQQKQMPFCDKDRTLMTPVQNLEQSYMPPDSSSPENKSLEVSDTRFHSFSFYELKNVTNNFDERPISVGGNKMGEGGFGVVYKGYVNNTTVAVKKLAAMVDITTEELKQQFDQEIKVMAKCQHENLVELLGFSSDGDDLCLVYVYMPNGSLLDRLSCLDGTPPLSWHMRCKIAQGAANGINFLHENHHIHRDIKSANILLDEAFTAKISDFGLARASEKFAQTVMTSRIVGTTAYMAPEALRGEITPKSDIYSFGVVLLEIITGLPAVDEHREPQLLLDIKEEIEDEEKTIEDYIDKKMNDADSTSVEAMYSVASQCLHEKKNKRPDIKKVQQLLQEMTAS

Row | Compound | IC50 [1] | EC50 [2] | Papp at 2 h, 3 µM [3]
1 | 3-(46S,7R)-7-ethyl-4-oxo-5-azaspiro[2.4]heptan-6-yl)methoxy)-5-methoxythieno[3,2-b]pyridine-6-carboxamide [Example 9] | 0.13 µM | – | –
2 | COc1nc2c(OCC3COCC(=O)N3)csc2cc1C(N)=O (racemic) [Example 7, 5-methoxy-3-((5-oxomorpholin-3-yl)methoxy)thieno[3,2-b]pyridine-6-carboxamide] | 0.615 µM | – | –
3 | COc1nc2c(OC[C@@H]3CC(C)C(=O)N3)csc2cc1C(N)=O (single isomer, unassigned) [Example 13] | 0.0362 µM | – | –
4 | COc1nc2c(OC[C@@H]3CC(C)C(=O)N3)csc2cc1C(N)=O (single isomer, unassigned) [Example 14] | 0.459 µM | – | –
5 | CCC1C[C@@H](COc2csc3cc(C(N)=O)c(OC)nc23)NC1=O (single isomer, unassigned) [Example 15] | 0.0634 µM | – | –
6 | CCC1C[C@@H](COc2csc3cc(C(N)=O)c(OC)nc23)NC1=O (single isomer, unassigned) [Example 16] | 0.0981 µM | – | –
7 | CC[C@H]1[C@@H](COc2csc3cc(C(N)=O)c(OC)nc23)NC(=O)C1(F)F [Example 1, 3-(((2S,3S)-3-Ethyl-4,4-difluoro-5-oxopyrrolidin-2-yl)methoxy)-5-methoxythieno[3,2-b]pyridine-6-carboxamide] | 0.0006 µM | 0.058 µM | 10.2 ×10⁻⁶ cm/s
8 | CC[C@@H]1[C@H](F)C(=O)N[C@@H]1COc1csc2cc(C(N)=O)c(OC)nc12 [Example 2, 3-(((2S,3S,4S)-3-Ethyl-4-fluoro-5-oxopyrrolidin-2-yl)methoxy)-5-methoxythieno[3,2-b]pyridine-6-carboxamide] | 0.0012 µM | 0.205 µM | 7.3 ×10⁻⁶ cm/s
9 | COc1cc2c(OC[C@@H]3CCC(=O)N3)csc2nc1C(N)=O [Example 3, (S)-5-Methoxy-3-((5-oxopyrrolidin-2-yl)methoxy)thieno[2,3-b]pyridine-6-carboxamide] | 0.558 µM | – | –
10 | CC[C@@H]1[C@H](F)C(=O)N[C@@H]1COc1csc2cc(C(N)=O)c(OC)cc12 [Example 4, 3-(((2S,3S,4S)-3-ethyl-4-fluoro-5-oxopyrrolidin-2-yl)methoxy)-5-methoxybenzo[b]thiophene-6-carboxamide] | 0.0004 µM | 0.153 µM | 8.5 ×10⁻⁶ cm/s
11 | COc1nc2c(OC[C@@H]3CCC(=O)N3)csc2cc1C(N)=O [Example 5, (S)-5-methoxy-3-((5-oxopyrrolidin-2-yl)methoxy)thieno[3,2-b]pyridine-6-carboxamide] | 0.0203 µM | 2.01 µM | –
12 | CC[C@@H]1CC(=O)N[C@@H]1COc1csc2cc(C(N)=O)c(OC)nc12 [Example 6, 3-(((2S,3R)-3-ethyl-5-oxopyrrolidin-2-yl)methoxy)-5-methoxythieno[3,2-b]pyridine-6-carboxamide] | 0.001 µM | 3.21 µM | 8.1 ×10⁻⁶ cm/s
13 | CC[C@H]1[C@@H](COc2csc3cc(C(N)=O)c(OC)nc23)NC(=O)[C@@H]1F [Example 8, 3-(((2S,3S,4R)-3-ethyl-4-fluoro-5-oxopyrrolidin-2-yl)methoxy)-5-methoxythieno[3,2-b]pyridine-6-carboxamide] | 0.0007 µM | 0.092 µM | 4.2 ×10⁻⁶ cm/s
14 | COc1nc2c(OC[C@@H]3C[C@@H](F)C(=O)N3)csc2cc1C(N)=O [Example 11, 3-(((2S,4R)-4-fluoro-5-oxopyrrolidin-2-yl)methoxy)-5-methoxythieno[3,2-b]pyridine-6-carboxamide] | 0.004 µM | 0.473 µM | –
15 | COc1nc2c(OC[C@H]3NC(=O)C[C@H]3C(F)F)csc2cc1C(N)=O [Example 12, 3-(((2S,3R)-3-(difluoromethyl)-5-oxopyrrolidin-2-yl)methoxy)-5-methoxythieno[3,2-b]pyridine-6-carboxamide] | 0.0025 µM | 0.261 µM | –
16 | COc1nc2c(OC[C@H]3NC(=O)C[C@H]3C)csc2cc1C(N)=O [Example 17, 5-methoxy-3-(((2S,3R)-3-methyl-5-oxopyrrolidin-2-yl)methoxy)thieno[3,2-b]pyridine-6-carboxamide] | 0.006 µM | 0.893 µM | –
17 | COc1nc2c(OC[C@H]3NC(=O)[C@H](F)[C@H]3C3CC3)csc2cc1C(N)=O [Example 18, 3-(((2S,3S,4R)-3-cyclopropyl-4-fluoro-5-oxopyrrolidin-2-yl)methoxy)-5-methoxythieno[3,2-b]pyridine-6-carboxamide] | 0.0028 µM | 0.962 µM | –
18 | CC[C@@H]1CC(=O)N[C@@H]1COc1c(C)sc2cc(C(N)=O)c(OC)nc12 [Example 19, 3-(((2S,3R)-3-ethyl-5-oxopyrrolidin-2-yl)methoxy)-5-methoxy-2-methylthieno[3,2-b]pyridine-6-carboxamide] | 0.0106 µM | 3.3 µM | 22.5 ×10⁻⁶ cm/s
19 | CC[C@@H]1CC(=O)N[C@@H]1COc1csc2cc(C(N)=O)c(OC3CC3)nc12 [Example 20, 5-cyclopropoxy-3-(((2S,3R)-3-ethyl-5-oxopyrrolidin-2-yl)methoxy)thieno[3,2-b]pyridine-6-carboxamide] | 0.0191 µM | 0.473 µM | –
20 | COc1nc2c(OC[C@H]3NC(=O)C(F)(F)[C@H]3C)csc2cc1C(N)=O [Example 21, 3-(((2S,3S)-4,4-difluoro-3-methyl-5-oxopyrrolidin-2-yl)methoxy)-5-methoxythieno[3,2-b]pyridine-6-carboxamide] | 0.0013 µM | 0.127 µM | 13.6 ×10⁻⁶ cm/s
21 | CC[C@@H]1[C@H](F)C(=O)N[C@@H]1COc1c(C)sc2cc(C(N)=O)c(OC)nc12 [Example 22, 3-(((2S,3S,4S)-3-ethyl-4-fluoro-5-oxopyrrolidin-2-yl)methoxy)-5-methoxy-2-methylthieno[3,2-b]pyridine-6-carboxamide] | 0.0336 µM | – | –
22 | CC[C@@H]1[C@H](F)C(=O)N[C@@H]1COc1csc2cc(C(N)=O)c(OC(C)C)nc12 [Example 23, 3-(((2S,3S,4S)-3-ethyl-4-fluoro-5-oxopyrrolidin-2-yl)methoxy)-5-isopropoxythieno[3,2-b]pyridine-6-carboxamide] | 0.0014 µM | 0.189 µM | 18.4 ×10⁻⁶ cm/s
23 | CC[C@@H]1[C@H](F)C(=O)N[C@@H]1COc1csc2cc(C(N)=O)c(OC3CC3)nc12 [Example 24, 5-cyclopropoxy-3-(((2S,3S,4S)-3-ethyl-4-fluoro-5-oxopyrrolidin-2-yl)methoxy)thieno[3,2-b]pyridine-6-carboxamide] | 0.0202 µM | > 10 µM | –
24 | COc1nc2c(OC[C@@H]3CCC(=O)N3)c(C)sc2cc1C(N)=O [Example 25, (S)-5-methoxy-2-methyl-3-((5-oxopyrrolidin-2-yl)methoxy)thieno[3,2-b]pyridine-6-carboxamide] | 0.128 µM | – | –
25 | CC[C@@H]1OC(=O)N[C@@H]1COc1csc2cc(C(N)=O)c(OC)nc12 [Example 26, 3-(((4R,5S)-5-ethyl-2-oxooxazolidin-4-yl)methoxy)-5-methoxythieno[3,2-b]pyridine-6-carboxamide] | 0.0068 µM | – | 3.5 ×10⁻⁶ cm/s
26 | COc1nc2c(OC[C@H]3NC(=O)[C@H](F)[C@H]3C)csc2cc1C(N)=O [Example 27, 3-(((2S,3S,4R)-4-fluoro-3-methyl-5-oxopyrrolidin-2-yl)methoxy)-5-methoxythieno[3,2-b]pyridine-6-carboxamide] | 0.0011 µM | 0.058 µM | 5.9 ×10⁻⁶ cm/s
27 | CC[C@@H]1CC(=O)N[C@@H]1COc1csc2cc(C(N)=O)c(OC)cc12 [Example 29] | 0.0009 µM | 0.363 µM | –
